Test results from EP4624466A1, “DEGRADER FOR DECOMPOSING CMET PROTEIN, AND PHARMACEUTICAL COMPOSITION COMPRISING SAME” (Innocure Therapeutics, Inc., priority 2022, dated 2024).
Like-named read-outs stand apart in the source and are kept apart here.

Legend:
[1] = tested on: MKN-45; test: Cell viability / antiproliferative assay (WST-8), MKN-45; details: read-out: MKN-45 IC50;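 note: MKN-45 is a human gastric cancer line overexpressing c-MET, growth inhibition read as WST-8 formazan absorbance at 450 nm after 2 h dye incubation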
[2] = target: c-MET (Homo sapiens, UniProt P08581); test: c-MET protein degradation (Simple Western), MKN-45; type: cell-based; set-up: assess the resolution of the compound of the present invention for c-MET expressed in cells; endogenous in cells; host or cells: MKN45 (human gastric cancer); details: c-MET overexpressing gastric cancer cell line MKN-45, treated 24 hours
Description: In order to assess the resolution of the compound of the present invention for c-MET expressed in cells, cells were dispensed in a 12-well plate at a concentration of 2 × 10^5 cells/well, and then gastric cancer cell lines were treated with samples for 24 hours and lung cancer cell lines were treated for 48 hours. Cell lysates were collected using a scraper on ice, centrifuged at 4°C15,000 rpm for 30 min to obtain a protein-containing supernatant. Protein expression was then measured using the Simple Western Automated Western Blot System Abby instrument using 3 µg of protein for each sample. SDS and heat-induced denaturation proteins were separated by molecular weight, attached to capillary, reacted with anti-c-MET or anti-GAPDH antibodies, which are primary antibodies, and then reacted with HRP-conjugated secondary antibodies, and analyzed the protein expression signal with compass software. Protein expression was normalized based on the expression value of GAPDH, and protein development in each sample was measured as a percentage (%) based on 100% of samples treated with 0.1% DMSO carriers, and DC50 (concentration of a compound where 50% protein inhibition is achieved) was calculated from the change in protein expression amount due to compound treatment.

[3] = MKN-45 cells, 72 hours, WST-8, Table 1

Chain of c-MET (P08581 25-1390): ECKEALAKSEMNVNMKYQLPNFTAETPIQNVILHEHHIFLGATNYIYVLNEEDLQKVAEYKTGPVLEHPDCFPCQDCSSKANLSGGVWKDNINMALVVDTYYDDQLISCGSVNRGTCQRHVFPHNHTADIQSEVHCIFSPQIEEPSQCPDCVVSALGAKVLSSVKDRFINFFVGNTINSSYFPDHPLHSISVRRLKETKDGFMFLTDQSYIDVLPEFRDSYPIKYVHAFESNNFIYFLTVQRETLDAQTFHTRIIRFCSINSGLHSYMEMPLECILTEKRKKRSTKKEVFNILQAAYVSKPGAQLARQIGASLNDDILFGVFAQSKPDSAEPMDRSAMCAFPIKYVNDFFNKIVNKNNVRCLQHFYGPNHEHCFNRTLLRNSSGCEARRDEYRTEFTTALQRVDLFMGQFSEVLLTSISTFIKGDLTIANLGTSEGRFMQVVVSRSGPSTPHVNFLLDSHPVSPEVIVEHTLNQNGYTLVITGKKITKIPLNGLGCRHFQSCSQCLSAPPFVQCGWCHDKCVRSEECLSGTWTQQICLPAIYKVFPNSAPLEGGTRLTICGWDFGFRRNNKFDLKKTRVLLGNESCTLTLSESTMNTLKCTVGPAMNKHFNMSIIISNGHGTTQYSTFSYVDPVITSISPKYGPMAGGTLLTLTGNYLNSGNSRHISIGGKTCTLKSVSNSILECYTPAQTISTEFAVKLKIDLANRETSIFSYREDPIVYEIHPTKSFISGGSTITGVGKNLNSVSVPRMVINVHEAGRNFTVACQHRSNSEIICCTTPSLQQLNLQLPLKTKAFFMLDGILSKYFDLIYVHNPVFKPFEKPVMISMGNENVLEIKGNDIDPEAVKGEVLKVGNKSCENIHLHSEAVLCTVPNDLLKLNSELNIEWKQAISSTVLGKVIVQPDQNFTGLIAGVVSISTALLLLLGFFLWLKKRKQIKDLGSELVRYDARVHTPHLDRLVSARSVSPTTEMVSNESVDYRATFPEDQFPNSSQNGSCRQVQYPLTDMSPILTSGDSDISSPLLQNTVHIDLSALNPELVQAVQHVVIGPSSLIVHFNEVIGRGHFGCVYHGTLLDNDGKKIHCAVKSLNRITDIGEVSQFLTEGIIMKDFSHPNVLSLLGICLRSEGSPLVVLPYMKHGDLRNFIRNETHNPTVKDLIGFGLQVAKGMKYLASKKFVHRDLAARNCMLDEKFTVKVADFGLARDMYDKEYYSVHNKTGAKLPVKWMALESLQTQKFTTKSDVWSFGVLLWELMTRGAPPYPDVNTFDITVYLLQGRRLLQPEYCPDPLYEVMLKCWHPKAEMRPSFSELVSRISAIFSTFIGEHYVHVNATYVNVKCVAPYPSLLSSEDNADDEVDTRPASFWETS

Compound: Cc1nn(C2CCC(=O)NC2=O)c(=O)c2ccc(NCCCCCC(=O)N3CCC(COc4cnc(-c5cccc(Cn6nc(-c7cccc(C#N)c7)ccc6=O)c5)nc4)CC3)cc12 (stereo not drawn) [ICT-0000990]
- IC50 ([1]; Homo sapiens, MKN-45, 72 h): 100 to 1000 nM
- DC50 ([2]; Table 2): 100 to 1000 nM

Compound: Cc1nn(C2CCC(=O)NC2=O)c(=O)c2cc(N3CCC(C(=O)NCCCNC(=O)CN4CCC(COc5cnc(-c6cccc(Cn7nc(-c8cccc(C#N)c8)ccc7=O)c6)nc5)CC4)CC3)ccc12 (stereo not drawn) [ICT-0001238]
- DC50 ([2]; Table 2): > 1000 nM

Compound: Cn1cc(-c2cnc3c(nnn3C[C@@H]3CN(c4ncc(-c5ccc(CN6CCN(C(=O)CCOCCOCCOCCOCCNc7cccc8cnn(C9CCC(=O)NC9=O)c(=O)c78)CC6)cc5)cn4)CCO3)n2)cn1 (stereo partly drawn) [ICT-0000946, 3-[8-(16-{4-[(4-{2-[(2S)-2-{[5-(1-methyl-1H-pyrazole-4-yl)-1H-[1,2,3]triazolo[4,5-b]pyrazine-1-yl]methyl}morpholine-4-day]pyrimidine-5-yl}phenyl)methyl]piperazine-1-yl}-16-oxo-4,7,10,13-tetraoxa-1-azahexadecane-1-yl)-1-oxo-1,2-dihydroptalazine-2-yl]piperidine-2,6-dione]
- IC50 [1, 3]: 100 to 1000 nM

Compound: Cc1nn(C2CCC(=O)NC2=O)c(=O)c2ccc(N3CCC(CN4CCN(CC(=O)N5CCC(COc6cnc(-c7cccc(Cn8nc(-c9cccc(C#N)c9)ccc8=O)c7)nc6)CC5)CC4)CC3)cc12 (stereo not drawn) [ICT-0001213]
- IC50 ([1]; Homo sapiens, MKN-45, 72 h): < 100 nM
- DC50 ([2]; Table 2): < 100 nM

Compound: Cc1nn(C2CCC(=O)NC2=O)c(=O)c2cc(N3CCN(CC(=O)N4CCC(COc5cnc(-c6cccc(Cn7nc(-c8cccc(C#N)c8)ccc7=O)c6)nc5)CC4)CC3)ccc12 (stereo not drawn) [ICT-0001214, 3-(1-(3-(5-((1-(2-(4-(3-(2,6-dioxopiperidin-3-yl)-1-methyl-4-oxo-3,4-dihydropetalazine-6-yl)piperazine-1-il)acetyl)piperidine-4-il)methoxy)pyrimidine-2-yl)benzyl)6-oxo-1,6-dihydropyridazine-3-yl)benzonitrile]
- IC50 ([1]; MKN-45 cells, 72 hours, WST-8, Table 2): < 100 nM
- DC50 ([2]; Table 2): < 100 nM

Compound: Cn1cc(-c2cnc3c(nnn3C[C@@H]3CN(c4ncc(-c5ccc(CN6CCN(C(=O)COCCOCCOCCNc7ccc8c(=O)n(C9CCC(=O)NC9=O)ncc8c7)CC6)cc5)cn4)CCO3)n2)cn1 (stereo partly drawn) [ICT-0000938, 3-[6-(12-{4-[(4-{2-[(2S)-2-{[5-(1-methyl-1H-pyrazole-4-yl)-1H-[1,2,3]triazolo[4,5-b]pyrazine-1-yl]methyl}morpholine-4-day]pyrimidine-5-yl}phenyl)methyl]piperazine-1-yl}-12-oxo-4,7,10-trioxa-1-azadodecane-1-yl)-1-oxo-1,2-dihydroptalazine-2-yl]piperidine-2,6-dione]
- IC50 ([1]; Homo sapiens, MKN-45, 72 h): 100 to 1000 nM
- DC50 ([2]; Table 1): > 1000 nM

Compound: Cc1nn(C2CCC(=O)NC2=O)c(=O)c2cc(N3CCN(CC4CCN(C(=O)CN5CCC(COc6cnc(-c7cccc(Cn8nc(-c9cccc(C#N)c9)ccc8=O)c7)nc6)CC5)CC4)CC3)ccc12 (stereo not drawn) [ICT-0001195]
- IC50 ([1]; Homo sapiens, MKN-45, 72 h): < 100 nM
- DC50 ([2]; Table 2): < 100 nM

Compound: Cc1nn(C2CCC(=O)NC2=O)c(=O)c2ccc(N3CCC(NC4CCN(CC(=O)N5CCC(COc6cnc(-c7cccc(Cn8nc(-c9cccc(C#N)c9)ccc8=O)c7)nc6)CC5)CC4)CC3)cc12 (stereo not drawn) [ICT-0001219]
- IC50 ([1]; Homo sapiens, MKN-45, 72 h): < 100 nM
- DC50 ([2]; Table 2): < 100 nM

Compound: 3-(6-(4-((1-(4-(1-(2-((S)-2-((5-(1-methyl-1H-pyrazole-4-yl)-1H-[1,2,3]triazolo[4,5-b]pyrazine-1-yl)methyl)morpholino)pyrimidine-5-il)benzyl)piperidine-4-il)methyl)piperazine-1-yl)piperazine-1-yl)1-oxopthalazine-2(1H)-yl)piperidine-2,6-dione [ICT-0000978]
- IC50 [1, 3]: < 100 nM
- DC50 ([2]; Table 1): 100 to 1000 nM

Compound: Cc1nn(C2CCC(=O)NC2=O)c(=O)c2cc(F)c(N3CCN(CC4CCN(CC(=O)N5CCC(COc6cnc(-c7cccc(Cn8nc(-c9cccc(C#N)c9)ccc8=O)c7)nc6)CC5)CC4)CC3)cc12 (stereo not drawn) [ICT-0001272]
- IC50 ([1]; Homo sapiens, MKN-45, 72 h): < 100 nM
- DC50 ([2]; Table 2): < 100 nM

Compound: Cc1nn(C2CCC(=O)NC2=O)c(=O)c2ccc(N3CCO[C@H](CN4CCN(CC(=O)N5CCC(COc6cnc(-c7cccc(Cn8nc(-c9cccc(C#N)c9)ccc8=O)c7)nc6)CC5)CC4)C3)cc12 (stereo partly drawn) [ICT-0001229]
- IC50 ([1]; Homo sapiens, MKN-45, 72 h): < 100 nM
- DC50 ([2]; Table 2): < 100 nM

Compound: Cn1cc(-c2cnc3c(nnn3C[C@@H]3CN(c4ncc(-c5ccc(CN6CCN(C(=O)CCCCCNc7cccc8cnn(C9CCC(=O)NC9=O)c(=O)c78)CC6)cc5)cn4)CCO3)n2)cn1 (stereo partly drawn) [ICT-0000970, 3-(8-((6-(4-(4-(2-((S)-2-((5-(1-methyl-1H-pyrazole-4-yl)-1H-[1,2,3]triazolo[4,5-b]pyrazine-1-yl)methyl)morpholino)pyrimidine-5-yl)benzyl)piperazine-1-yl)6-oxohexyl)amino)1-oxopthalazine-2(1H)-yl)piperidine-2,6-dione]
- IC50 [1, 3]: < 100 nM

Compound: N#Cc1cccc(-c2ccc(=O)n(Cc3cccc(-c4ncc(OCC5CCN(C(=O)CCCN6CCN(c7ccc8c(=O)n(C9CCC(=O)NC9=O)ncc8c7)CC6)CC5)cn4)c3)n2)c1 (stereo not drawn) [ICT-0001200]
- IC50 ([1]; Homo sapiens, MKN-45, 72 h): < 100 nM
- DC50 ([2]; Table 2): < 100 nM

Compound: Cc1nn(C2CCC(=O)NC2=O)c(=O)c2ccc(N3CCN(CC4CCN(CC(=O)N5CCC(COc6cnc(-c7cccc(Cn8nc(-c9cccc(C#N)c9)ccc8=O)c7)nc6)CC5)CC4)CC3)cc12 (stereo not drawn) [ICT-0001256]
- DC50 ([2]; Table 2): < 100 nM

Compound: N#Cc1cccc(-c2ccc(=O)n(Cc3cccc(-c4ncc(OCC5CCN(C(=O)CCCCCNc6ccc7c(=O)n(C8CCC(=O)NC8=O)ncc7c6)CC5)cn4)c3)n2)c1 (stereo not drawn) [ICT-0000984, 3-(1-{[3-(5-{[1-(6-{[2-(2,6-dioxopiperidin-3-yl)-1-oxo-1,2-dihydropthalazine-6-yl]amino}hexanoyl)piperidine-4-il]methoxy}pyrimidine-2-yl)phenyl]methyl}-6-oxo-1,6-dihydropyridazine-3-yl)benzonitrile]
- IC50 ([1]; Homo sapiens, MKN-45, 72 h): < 100 nM

Compound: Cn1cc(-c2cnc3c(nnn3C[C@@H]3CN(c4ncc(-c5ccc(CN6CCN(C(=O)CCOCCOCCNc7cccc8cnn(C9CCC(=O)NC9=O)c(=O)c78)CC6)cc5)cn4)CCO3)n2)cn1 (stereo partly drawn) [ICT-0000940]
- IC50 ([1]; Homo sapiens, MKN-45, 72 h): 100 to 1000 nM

Compound: Cn1cc(-c2cnc3c(nnn3C[C@@H]3CN(c4ncc(-c5ccc(CN6CCN(C(=O)CCOCCOCCOCCOCCOCCOCCNc7cccc8cnn(C9CCC(=O)NC9=O)c(=O)c78)CC6)cc5)cn4)CCO3)n2)cn1 (stereo partly drawn) [ICT-0000968]
- IC50 [1, 3]: 100 to 1000 nM

Compound: N#Cc1cccc(-c2ccc(=O)n(Cc3cccc(-c4ncc(OCC5CCN(C(=O)CCOCCOCCOCCOCCNc6cccc7cnn(C8CCC(=O)NC8=O)c(=O)c67)CC5)cn4)c3)n2)c1 (stereo not drawn) [ICT-0000907]
- IC50 ([1]; Homo sapiens, MKN-45, 72 h): < 100 nM

Compound: Cc1nn(C2CCC(=O)NC2=O)c(=O)c2ccc(N3CCN(c4ccc(NCC(=O)N5CCC(COc6cnc(-c7cccc(Cn8nc(-c9cccc(C#N)c9)ccc8=O)c7)nc6)CC5)cc4)CC3)cc12 (stereo not drawn) [ICT-0001240, 3-(1-(3-(5-((1-((4-(4-(2-(2,6-dioxopiperidin-3-yl)-4-methyl-1-oxo-1,2-dihydropthalazine-6-yl)piperazine-1-yl)phenyl)glycyl)piperidine-4-il)methoxy)pyrimidine-2-yl)benzyl)6-oxo-1,6-dihydropyridazine-3-yl)benzonitrile]
- IC50 ([1]; Homo sapiens, MKN-45, 72 h): < 100 nM

Compound: Cn1cc(-c2cnc3c(nnn3C[C@@H]3CN(c4ncc(-c5ccc(CN6CCN(C(=O)COCCOCCOCCOCCOCCNc7cccc8cnn(C9CCC(=O)NC9=O)c(=O)c78)CC6)cc5)cn4)CCO3)n2)cn1 (stereo partly drawn) [ICT-0000967, 3-(8-((17-(4-(4-(2-((S)-2-((5-(1-methyl-1H-pyrazole-4-yl)-1H-[1,2,3]triazolo[4,5-b]pyrazine-1-yl)methyl)morpholino)pyrimidine-5-yl)benzyl)piperazine-1-yl)17-oxo-3,6,9,12,15-pentaheptacel)amino)-1-oxopthalazine-2(1H)-yl)piperidine-2,6-dione]
- IC50 [1, 3]: 100 to 1000 nM

Compound: Cc1nn(C2CCC(=O)NC2=O)c(=O)c2cc(N3CCN(C(=O)CN4CCC(COc5cnc(-c6cccc(Cn7nc(-c8cccc(C#N)c8)ccc7=O)c6)nc5)CC4)CC3)ccc12 (stereo not drawn) [ICT-0001115, 3-(1-(3-(5-((1-(2-(4-(3-(2,6-dioxopiperidin-3-yl)-1-methyl-4-oxo-3,4-dihydropetalazine-6-yl)piperazine-1-yl)2-oxoethyl)piperidine-4-il)methoxy)pyrimidine-2-yl)benzyl)6-oxo-1,6-dihydropyridazine-3-yl)benzonitrile]
- DC50 ([2]; Table 2): < 100 nM

Compound: Cc1nn(C2CCC(=O)NC2=O)c(=O)c2ccc(NCCCC(=O)N3CCC(COc4cnc(-c5cccc(Cn6nc(-c7cccc(C#N)c7)ccc6=O)c5)nc4)CC3)cc12 (stereo not drawn) [ICT-0000989]
- IC50 ([1]; Homo sapiens, MKN-45, 72 h): < 100 nM

Compound: Cn1cc(-c2cnc3c(nnn3C[C@@H]3CN(c4ncc(-c5ccc(CN6CCN(C(=O)COCCOCCOCCNc7cccc8cnn(C9CCC(=O)NC9=O)c(=O)c78)CC6)cc5)cn4)CCO3)n2)cn1 (stereo partly drawn) [ICT-0000942, 3-[8-(12-{4-[(4-{2-[(2S)-2-{[5-(1-methyl-1H-pyrazole-4-yl)-1H-[1,2,3]triazolo[4,5-b]pyrazine-1-yl]methyl}morpholine-4-day]pyrimidine-5-yl}phenyl)methyl]piperazine-1-il}-12-oxo-4,7,10-trioxa-1-azadodecane-1-yl)-1-oxo-1,2-dihydroptalazine-2-yl]piperidine-2,6-dione]
- IC50 [1, 3]: < 100 nM
